Measurements as given in patent US10160705B2, “Class of HDAC inhibitors expands the renal progenitor cells population and improves the rate of recovery from acute kidney injury” (University of Pittsburgh—Of the Commonwealth System of …, priority 2011, dated 2018).

System: renal progenitor cells
Test: In situ hybridization for lhx1a expression in 10-somite embryos (renal progenitor cell expansion)
Type: in vivo
Details: for responders at 0.8 µM / responders at 1.5 µM / responders at 3 µM / EC50 / responders at 0.4 µM / responders at 0.2 µM: Danio rerio; for responders at 0.8 µM / responders at 1.5 µM / responders at 3 µM / responders at 0.4 µM / responders at 0.2 µM: percent of embryos with expanded kidney field; for responders at 0.8 µM: 800 nM, read-out: Expansion of Cells (including repeats* and recounts**) 800 nM; for responders at 1.5 µM: read-out: Expansion of Cells (including repeats* and recounts**) 1.5 μM; for responders at 3 µM: read-out: Expansion of Cells (including repeats* and recounts**) 3 μM; for EC50: first pass EC50 from percent expansion (Excel trendline), average where several experiments; for responders at 0.4 µM: 400 nM, read-out: Expansion of Cells (including repeats* and recounts**) 400 nM; for responders at 0.2 µM: 200 nM, read-out: Expansion of Cells (including repeats* and recounts**) 200 nM
Method: PTBA was synthesized as described below. Hydroxyurea and aphidicolin were obtained from Sigma-Aldrich.
In situ hybridization and immunocytochemistry: In situ hybridization was performed as previously described with some modifications.142 Hybridization temperature was 65° C. Embryos were blocked in 2% blocking reagent (Roche) with 5% sheep serum in MAB (100 mM maleic acid and 150 mM NaCl [pH 7.5]). Whole-mount immunocytochemistry with 1:25 mouse anti-α6F antibody (Developmental Studies Hybridoma Bank) and 1:100 Cy3 secondary antibody (Jackson ImmunoResearch) was performed as described previously.108 Embryos were embedded in JB-4 for sectioning per the manufacturer's instructions (Polysciences), sectioned at 5 μm, and mounted with Cytoseal 60 (Richard-Allan Scientific).
The remaining PTBA analogs were synthesized.
In situ hybridization for lhx1a was performed as described above. […] Compounds were classified as effective, partially-effective or ineffective based on comparison to the effects of PTBA at a given concentration.
Testing of the compounds is on-going, but for those tested, Table 6 provides first pass EC50s based upon colormetric in situ hybridizations for the Lhx1a mRNA expression levels. After the procedure is run, in situ hybridization is done for the lhx1 mRNA expression and the number of embryos that show an expanded kidney field is manually counted to establish the percent of embryos showing expansion. Then the EC50 is determined by plotting the percent expansion in Excel, graphing the results and using the trendline function to determine the 50 percent point.

Compound | lhx1a expansion, percent of treated embryos (3 μM from 2 hpf, 10-somite embryos) | responders at 0.8 µM [%] | responders at 1.5 µM [%] | responders at 3 µM [%] | EC50 [µM] | responders at 0.4 µM [%] | responders at 0.2 µM [%]
NC(CCSc1ccccc1)C(=O)O (stereo not shown) [Compound 2-amino-PTBA, 2-amino-PTBA, reference compound] | no expansion | – | – | – | – | – | –
COC(=O)CCCCSc1ccc(F)cc1 [UPHD-00032, methyl 5-[(4-fluoro-phenyl)sulfanyl]pentanoate] | – | 0 | 0 | 0 | > 3 | – | –
COC(=O)CCCCSc1ccccc1 [UPHD-00033, methyl 5-(phenylsulfanyl)pentanoate] | – | 0 | 5 | 11 | > 3 | – | –
O=C(CCCCSc1ccc(F)cc1)NO [UPHD-00034, 5-[(4-fluoro-phenyl)sulfanyl]-N-hydroxypentanamide] | – | – | – | – | – | 10 | –
O=C(CCCCSc1ccccc1)NO [UPHD-00035, N-hydroxy-5-(phenyl-sulfanyl)pentanamide] | – | 0 | 0 | 21.1 | > 3 | 10 | 25
Nc1ccccc1NC(=O)CCCSc1ccccc1 [UPHD-00036, N-(2-aminophenyl)-4-(phenylsulfanyl)butanamide] | – | 45 | 85 | 100 | – | – | –
Nc1ccccc1NC(=O)CCCCSc1ccc(F)cc1 [UPHD-00037, N-(2-aminophenyl)-5-[(4-fluoro-phenyl)sulfanyl]pentanamide] | – | – | – | – | 2.59 | – | 10
Nc1ccccc1NC(=O)CCCCSc1ccccc1 [UPHD-00038, N-(2-aminophenyl)-5-(phenylsulfanyl)pentanamide] | – | 58 | 81 | 85 | – | – | –
COC(=O)CCCCCCSc1ccc(F)cc1 [UPHD-00039, methyl 7-[(4-fluor-phenyl)sulfanyl]heptanoate] | – | 20 | 35 | 11 | > 3 | – | –
COC(=O)CCCCCCSc1ccccc1 [UPHD-00040, methyl 7-(phenylsulfanyl)heptanoate] | – | 6 | 15 | 45 | > 3 | – | –
O=C(CCCCCCSc1ccccc1)NO [UPHD-00041, N-hydroxy-7-(phenyl-sulfanyl)heptanamide] | – | 0 | 0 | 0 | > 3 | – | –
O=C(CCCCCCSc1ccc(F)cc1)NO [UPHD-00042, 7-[(4-fluoro-phenyl)sulfanyl]-N-hydroxyheptanamide] | – | – | – | – | > 3 | – | –
Nc1ccccc1NC(=O)CCCCCCSc1ccc(F)cc1 [UPHD-00043, N-(2-aminophenyl)-7-[(4-fluoro-phenyl)sulfanyl]heptanamide] | – | – | – | 57 | 3 | 15 | 0
Nc1ccccc1NC(=O)CCCCCCSc1ccccc1 [UPHD-00044, N-(2-aminophenyl)-7-(phenylsulfanyl)heptanamide] | – | – | – | – | 1.49 | – | –
COC(=O)c1ccc(CSc2ccccc2)cc1 [UPHD-00045, methyl 4[(phenyl-sulfanyl)methyl]benzoate] | – | 17 | 0 | 17 | > 3 | – | –
COC(=O)c1ccc(CSc2ccc(F)cc2)cc1 [UPHD-00046, methyl 4-{[(4-fluoro-phenyl)sul-fanyl]methyl}benzoate] | – | 17 | 30 | 20 | > 3 | – | –
COC(=O)CCCCCSc1ccccc1 [UPHD-00047, methyl 6-(phenyl-sulfanyl)hexanoate] | – | 100 | 100 | 100 | 0.4 | – | –
COC(=O)CCCCCSc1ccc(F)cc1 [UPHD-00048, methyl 6-[(4-fluoro-phenyl)sulfanyl]hexanoate] | – | 100 | 100 | 100 | 0.28 | – | –
